Experiment [1] relates to Smad2/3 phosphorylation. The experiment can be described thus: Phospho-Smad2/3 Inhibition Assay in Panc-1 (western blot). In kind it is cell-based. As to conditions: Homo sapiens; 10 μM, 3 hours; PANC-1 stimulated with 10 ng/ml TGF-b1 for 1 hour; read-out: % inh of Smad2/3 phosphorylation in PANC-1. The gist of the method: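 Serum-starved cells (0.5% FBS overnight) pretreated 3 h at 37 °C with compound at 10 μM or serial dilutions for IC50, in 0.3% DMSO. TGF-b1 10 ng/ml stimulation: 1 h for Panc-1 (human), 20 min for C2C12 (mouse). Phospho-Smad2 (Ser465/467) and phospho-Smad3 (Ser423/425) measured by western blot of lysates.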
A general note: In western blotting, separated proteins are transferred to a membrane and probed.

For experiment [2], the system named is MiaPaca2. Briefly: MiaPaca2 proliferation. It counts as cell-based. The conditions noted are these: Homo sapiens, MIA PaCa-2; for inhibition at 10 µM: read-out: % inh of proliferation in MiaPaca2.
Experiment [3] deals with KRas G12D mutant (Homo sapiens (Human), UniProt P01116, G12D). The experiment can be described thus: Ras GTP Binding Domain Inhibition Assay, KRas G12D mutant. The conditions noted are these: for inhibition at 20 µM: Table 7; for KRas G12D mutant + SOS: % inh. / KRas G12D mutant: % inh.: 20 uM, Table 8. A digest of the protocol:
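Steps: coat His-tagged protein (10-30 μg/mL) on nickel wells overnight at 4° C; add test compound, 20 μM final or serial dilution, 1% DMSO, 3 h RT; optional Sos final hour; add 100 nM Cy3-GTP or Cy5-GTP, 45 min; wash and read fluorescence.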

In experiment [4] the test system is MAPK p38. Briefly: MAPK p38 Activation Assay in Panc-1 (western blot). In kind it is cell-based, Human. Details: key: Y = yes; N = No. As to conditions: at 10 μM. A digest of the protocol:
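Cells serum-starved overnight in 0.5% FBS, then compound 3 h at 37° C (10 μM or serial dilutions for IC50; 0.3% DMSO). TGF-b1 10 ng/ml stimulation followed: 1 h for Panc-1, 20 min for C2C12. Phospho-p38 (Thr180/Tyr182) measured by western blot of lysates.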

Setting [5] is: + SOS, read-out: KRas G12D mutant + SOS: % inh.
Setting [6] is: without SOS, read-out: KRas G12D mutant: % inh.

Read-outs that look alike come from different tables or passages of the source.

Usually IC50 stands for the point on the concentration scale where inhibition reaches its midpoint.

Sequence of KRas G12D mutant (P01116 other isoform, or with tags, fused parts or gaps G12D): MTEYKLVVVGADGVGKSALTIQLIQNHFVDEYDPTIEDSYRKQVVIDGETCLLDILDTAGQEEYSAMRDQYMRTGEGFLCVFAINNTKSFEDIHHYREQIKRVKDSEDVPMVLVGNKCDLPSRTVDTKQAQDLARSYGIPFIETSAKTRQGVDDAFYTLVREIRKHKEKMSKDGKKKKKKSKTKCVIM

In the case of `COCC1(OC)CCN(c2nc(-c3nccn3C)nc3sc(-c4ccn(C(C)C)n4)c(C)c23)C1` (racemic) [Compound 27, rac-6-(1-Isopropyl-1H-pyrazol-3-yl)-4-(3-methoxy-3-(methoxymethyl)pyrrolidin-1-yl)-5-methyl-2-(1-methyl-1H-imidazol-2-yl)thieno[2,3-d]pyrimidine], the inhibition at 10 µM in experiment [1] is 0%; in experiment [2], 76 to 100%. Moreover, the IC50 in experiment [2] lay in the range of 5 to 10 µM. Further, the inhibition at 20 µM in experiment [3] (setting [5]) was in the range of 76 to 100%; in experiment [3] (setting [6]), 46 to 75%. Also, in experiment [3] (+ SOS), the “KRas G12D mutant + SOS: % inh.” value is reported as “D (D = 76-100% inhibition)”. Further, the “KRas G12D mutant: % inh.” value in experiment [3] (without SOS) is recorded as “C (C = 46-75% inhibition)”. Moreover, the “Activation of MAPK p38 in PANC-1” value in experiment [4] is recorded as “Y”.

With `COCCn1ccc(-c2sc3nc(-c4nccn4C)nc(NC[C@H]4CC[C@H]4COC)c3c2C)n1` (racemic) [Compound 38, rac-6-(1-(2-Methoxyethyl)-1H-pyrazol-3-yl)-N-(((1S,2R)-2-(methoxymethyl)cyclobutyl)methyl)-5-methyl-2-(1-methyl-1H-imidazol-2-yl)thieno[2,3-d]pyrimidin-4-amine], the results for the inhibition at 10 µM in experiment [1] and in experiment [2] were 46 to 75% and 76 to 100%, respectively. The molecule also displayed an IC50 in experiment [2] of 5 to 10 µM. For the same molecule, the results for the inhibition at 20 µM in experiment [3] (setting [5]) and in experiment [3] (setting [6]) were 76 to 100% and 26 to 45%, respectively. For the same molecule, the “KRas G12D mutant + SOS: % inh.” value in experiment [3] (+ SOS) is on record as “D (D = 76-100% inhibition)”. The “KRas G12D mutant: % inh.” value in experiment [3] (without SOS) is “B (B = 26-45% inhibition)”. Also, the “Activation of MAPK p38 in PANC-1” value in experiment [4] is listed as “Y”.

As to `COCCn1ccc(-c2sc3nc(-c4nccn4C)nc(N[C@@H]4CC[C@H](OC)C4)c3c2C)n1` (racemic) [Compound 39, rac-N-((1R,3S)-3-Methoxycyclopentyl)-6-(1-(2-methoxyethyl)-1H-pyrazol-3-yl)-5-methyl-2-(1-methyl-1H-imidazol-2-yl)thieno[2,3-d]pyrimidin-4-amine], the inhibition at 10 µM in experiment [1] is 0%; in experiment [2], 76 to 100%. In experiment [2], this molecule gave an IC50 of 5 to 10 µM. Besides, the inhibition at 20 µM in experiment [3] (setting [5]) was in the range of 76 to 100%; in experiment [3] (setting [6]), 46 to 75%. Further, in experiment [3] (+ SOS), the “KRas G12D mutant + SOS: % inh.” value was “D (D = 76-100% inhibition)”. In experiment [3] (without SOS), the “KRas G12D mutant: % inh.” value is recorded as “C (C = 46-75% inhibition)”. In addition, in experiment [4], the “Activation of MAPK p38 in PANC-1” value was “Y”.

As to `COc1cccc(-c2sc3nc(-c4nccn4C)nc(N[C@@H]4CC[C@@H](OC)C4)c3c2-c2ccccc2)c1F` (racemic) [Compound 41, 6-(2-Fluoro-3-methoxyphenyl)-N-((1R,3R)-3-methoxycyclopentyl)-2-(1-methyl-1H-imidazol-2-yl)-5-phenylthieno[2,3-d]pyrimidin-4-amine], the inhibition at 10 µM in experiment [1] and in experiment [2] was 76 to 100% in each case. In experiment [2], the IC50 was in the range of 1 to 4.99 µM. Also, the inhibition at 20 µM was 46 to 75% in experiment [3] (setting [5]) and 1 to 25% in experiment [3] (setting [6]). For the same molecule, in experiment [3] (+ SOS), the “KRas G12D mutant + SOS: % inh.” value was “C (C = 46-75% inhibition)”. Besides, the “KRas G12D mutant: % inh.” value in experiment [3] (without SOS) is recorded as “A (A = 1-25% inhibition)”. In addition, in experiment [4], the “Activation of MAPK p38 in PANC-1” value is given as “Y”.

In the case of `COc1cccc(-c2sc3nc(-c4nccn4C)nc(N[C@@H]4CC[C@@H](OC)C4)c3c2C)c1F` (racemic) [Compound 43, rac-6-(2-Fluoro-3-methoxyphenyl)-N-((1R,3R)-3-methoxycyclopentyl)-5-methyl-2-(1-methyl-1H-imidazol-2-yl)thieno[2,3-d]pyrimidin-4-amine], the inhibition at 10 µM was 76 to 100% in experiment [1] and 46 to 75% in experiment [2]. Further, the IC50 in experiment [2] was in the range of 5 to 10 µM. The values for the inhibition at 20 µM in experiment [3] (setting [5]) and in experiment [3] (setting [6]) were 76 to 100% and 1 to 25%, respectively. Further, in experiment [3] (+ SOS), the “KRas G12D mutant + SOS: % inh.” value is reported as “D (D = 76-100% inhibition)”. Further, the “KRas G12D mutant: % inh.” value in experiment [3] (without SOS) is listed as “A (A = 1-25% inhibition)”. Also, in experiment [4], the “Activation of MAPK p38 in PANC-1” value is reported as “Y”.

Consider `COc1cc(-c2sc3nc(-c4nccn4C)nc(N[C@@H]4CC[C@H](OC)C4)c3c2-c2ccccc2)ccn1` (racemic) [Compound 44, rac-N-((1R,3S)-3-Methoxycyclopentyl)-6-(2-methoxypyridin-4-yl)-2-(1-methyl-1H-imidazol-2-yl)-5-phenylthieno[2,3-d]pyrimidin-4-amine], for which the inhibition at 10 µM in experiment [1] and in experiment [2] was 76 to 100% each time. In experiment [2], this molecule returned an IC50 of 5 to 10 µM. Also, the inhibition at 20 µM in experiment [3] (setting [5]) was 46 to 75%; in experiment [3] (setting [6]) it was 76 to 100%. The “KRas G12D mutant + SOS: % inh.” value in experiment [3] (+ SOS) was “C (C = 46-75% inhibition)”. Also, the “KRas G12D mutant: % inh.” value in experiment [3] (without SOS) is “D (D = 76-100% inhibition)”. The “Activation of MAPK p38 in PANC-1” value in experiment [4] is reported as “N”.

As to `COc1cc(-c2sc3nc(-c4nccn4C)nc(N[C@@H]4CC[C@@H](OC)C4)c3c2-c2ccccc2)ccn1` (racemic) [Compound 47, N-((1R,3R)-3-Methoxycyclopentyl)-6-(2-methoxypyridin-4-yl)-2-(1-methyl-1H-imidazol-2-yl)-5-phenylthieno[2,3-d]pyrimidin-4-amine], the inhibition at 10 µM in experiment [1] and in experiment [2] was 76 to 100% each time. In experiment [2], this molecule had a half-inhibitory concentration (IC50) of under 1 µM. The inhibition at 20 µM was in the range of 76 to 100% in experiment [3] (setting [5]) and 46 to 75% in experiment [3] (setting [6]). In addition, the “KRas G12D mutant + SOS: % inh.” value in experiment [3] (+ SOS) is on record as “D (D = 76-100% inhibition)”. Further, the “KRas G12D mutant: % inh.” value in experiment [3] (without SOS) is on record as “C (C = 46-75% inhibition)”. Also, the “Activation of MAPK p38 in PANC-1” value in experiment [4] is “N”.

As to `CO[C@H]1C[C@H](CNc2nc(-c3nccn3C)nc3sc(-c4ccn(C(C)C)n4)c(C)c23)C1` [Compound 16, 6-(1-Isopropyl-1H-pyrazol-3-yl)-N-(((1r,3r)-3-methoxycyclobutyl)methyl)-5-methyl-2-(1-methyl-1H-imidazol-2-yl)thieno[2,3-d]pyrimidin-4-amine], the inhibition at 10 µM in experiment [1] was in the range of 1 to 25%; in experiment [2] it was 76 to 100%. In experiment [2], this molecule yielded an IC50 of under 1 µM. For the same molecule, the inhibition at 20 µM in experiment [3] (setting [5]) was in the range of 46 to 75%; in experiment [3] (setting [6]), 26 to 45%. In experiment [3] (+ SOS), the “KRas G12D mutant + SOS: % inh.” value was “C (C = 46-75% inhibition)”. In addition, the “KRas G12D mutant: % inh.” value in experiment [3] (without SOS) is “B (B = 26-45% inhibition)”. The “Activation of MAPK p38 in PANC-1” value in experiment [4] is “Y”.

With `COc1cccc(Nc2nc(-c3nccn3C)nc3sc(-c4ccn(C(C)C)n4)c(C)c23)c1` [Compound 17, 6-(1-Isopropyl-1H-pyrazol-3-yl)-N-(3-methoxyphenyl)-5-methyl-2-(1-methyl-1H-imidazol-2-yl)thieno[2,3-d]pyrimidin-4-amine], the inhibition at 10 µM in experiment [1] was 46 to 75%; in experiment [2], 76 to 100%. Also, the IC50 in experiment [2] lay within 5 to 10 µM. In addition, the inhibition at 20 µM in experiment [3] (setting [5]) and in experiment [3] (setting [6]) was 46 to 75% throughout. Besides, the “KRas G12D mutant + SOS: % inh.” value in experiment [3] (+ SOS) is given as “C (C = 46-75% inhibition)”. Also, the “KRas G12D mutant: % inh.” value in experiment [3] (without SOS) is recorded as “C (C = 46-75% inhibition)”. Besides, the “Activation of MAPK p38 in PANC-1” value in experiment [4] is reported as “Y”.

For `COc1cccc(Nc2nc(-c3nccn3C)nc3sc(-c4ccn(C(C)C)n4)c(C)c23)n1` [Compound 18, 6-(1-Isopropyl-1H-pyrazol-3-yl)-N-(6-methoxypyridin-2-yl)-5-methyl-2-(1-methyl-1H-imidazol-2-yl)thieno[2,3-d]pyrimidin-4-amine], the results for the inhibition at 10 µM in experiment [1] and in experiment [2] were 46 to 75% and 76 to 100%, respectively. Further, in experiment [2], the IC50 is under 1 µM. Also, the figures for the inhibition at 20 µM in experiment [3] (setting [5]) and in experiment [3] (setting [6]) were 46 to 75% and 76 to 100%, respectively. Moreover, the “KRas G12D mutant + SOS: % inh.” value in experiment [3] (+ SOS) is given as “C (C = 46-75% inhibition)”. Moreover, the “KRas G12D mutant: % inh.” value in experiment [3] (without SOS) is “D (D = 76-100% inhibition)”. In experiment [4], the “Activation of MAPK p38 in PANC-1” value is given as “Y”.

The values above are taken from US20240124483A1, “Methods for the Treatment of Fibrotic Disease” (SHY Therapeutics, LLC, priority 2021, published 2024).
